Patent US6414003B1, “Oxazolone derivatives and their use as anti-helicobacter pylori agents” (Takeda Chemical Industries, Ltd., priority 1996, dated 2002)
≈ marks a conversion by molar mass, not a printed value.

Assays:
H. pylori TN 58 = assay: In vitro antimicrobial test (agar dilution method); type: cell-based, Helicobacter pylori; conditions: Brucella agar with 7% horse blood
H. pylori CPY 433 = assay: In vitro antimicrobial test (agar dilution method); type: cell-based, Helicobacter pylori; conditions: Brucella agar with 7% horse blood
H. pylori TN 2 = assay: In vitro antimicrobial test (agar dilution method); type: cell-based, Helicobacter pylori; conditions: Brucella agar with 7% horse blood
[1] = test system: Helicobacter pylori NCTC 11637; assay: In vitro antimicrobial test (agar dilution method); type: cell-based; conditions: Brucella agar with 7% horse blood, 37° C., 4 days
Bacillus cereus IFO 3514 = assay: In vitro antimicrobial test (agar dilution method); type: cell-based; conditions: Brucella agar with 7% horse blood, 37° C., 4 days
Method: (§1) Using 5 strains of Helicobacter pylori, 19 other bacterial species and 2 yeast species as test strains, the antimicrobial activities of various compounds were determined by the method described below (agar dilution method). The test compound was dissolved in dimethyl sulfoxide; this solution was 2-fold diluted step by step with sterilized distilled water to yield test samples. Two milliliters of each test sample was mixed with 18 ml of Brucella agar supplemented with 7% horse blood as a medium to prepare a determination plate. Helicobacter pylori was subjected to shaking culture at 37° C. in a gas pack jar incorporating CampyPak™ (BBL^R Beckton Dickinson Microbiology Systems) for 20 hours, using Brucella broth medium supplemented with 2.5% fetal bovine serum, to yield a seed inoculum. The other test microorganisms were each cultured at 37° C. for 20 hours, using Brucella broth medium, to yield respective seed inocula.
(§2) Five microliters of each seed inoculum, previously adjusted to about 10^6 CFU/ml using Brucella broth medium supplemented with 2.5% fetal bovine serum was inoculated to each determination plate, and cultured at 37° C. in a gas pack jar incorporating CampyPak™ and water-soaked cotton absorbent for 4 days. After cultivation, strain growth was macroscopically examined; the minimum concentration for the absence of strain growth was taken as the MIC value (minimum inhibitory concentration) of the test compound.

[2] = test system: Pseudomonas aeruginosa IFO 3080; assay: In vitro antimicrobial test (agar dilution method); type: cell-based; conditions: Brucella agar with 7% horse blood, 37° C., 4 days
Method: as §1, §2

[3] = test system: Proteus morganii IFO 3168; assay: In vitro antimicrobial test (agar dilution method); type: cell-based; conditions: Brucella agar with 7% horse blood, 37° C., 4 days
Method: as §1, §2

[4] = test system: Salmonella enteritidis IFO 3313; assay: In vitro antimicrobial test (agar dilution method); type: cell-based; conditions: Brucella agar with 7% horse blood, 37° C., 4 days
Method: as §1, §2

[5] = test system: Micrococcus flavus IFO 3242; assay: In vitro antimicrobial test (agar dilution method); type: cell-based; conditions: Brucella agar with 7% horse blood, 37° C., 4 days
Method: as §1, §2

[6] = test system: Salmonella typhimurium IFO 12529; assay: In vitro antimicrobial test (agar dilution method); type: cell-based; conditions: Brucella agar with 7% horse blood, 37° C., 4 days
Method: as §1, §2

[7] = test system: Candida albicans IFO 0583; assay: In vitro antimicrobial test (agar dilution method); type: cell-based; conditions: Brucella agar with 7% horse blood, 37° C., 4 days
Method: as §1, §2

[8] = test system: Alcaligenes faecalis IFO 13111; assay: In vitro antimicrobial test (agar dilution method); type: cell-based; conditions: Brucella agar with 7% horse blood, 37° C., 4 days
Method: as §1, §2

[9] = test system: Proteus mirabilis ATCC 21100; assay: In vitro antimicrobial test (agar dilution method); type: cell-based; conditions: Brucella agar with 7% horse blood, 37° C., 4 days
Method: as §1, §2

[10] = test system: Staphylococcus aureus FDA 209P; assay: In vitro antimicrobial test (agar dilution method); type: cell-based; conditions: Brucella agar with 7% horse blood, 37° C., 4 days
Method: as §1, §2

[11] = test system: Proteus vulgaris IFO 3045; assay: In vitro antimicrobial test (agar dilution method); type: cell-based; conditions: Brucella agar with 7% horse blood, 37° C., 4 days
Method: as §1, §2

[12] = test system: Bacillus pumilus IFO 3813; assay: In vitro antimicrobial test (agar dilution method); type: cell-based; conditions: Brucella agar with 7% horse blood, 37° C., 4 days
Method: as §1, §2

[13] = test system: Citrobater freundii IFO 12681; assay: In vitro antimicrobial test (agar dilution method); type: cell-based; conditions: Brucella agar with 7% horse blood, 37° C., 4 days
Method: as §1, §2

Escherichia coli K12 = assay: In vitro antimicrobial test (agar dilution method); type: cell-based; conditions: Brucella agar with 7% horse blood, 37° C., 4 days
Method: as §1, §2

[14] = test system: Saccharomyces cerevisiae IFO 0209; assay: In vitro antimicrobial test (agar dilution method); type: cell-based; conditions: Brucella agar with 7% horse blood, 37° C., 4 days
Method: as §1, §2

[15] = test system: Bacillus subtilis PCI 219; assay: In vitro antimicrobial test (agar dilution method); type: cell-based; conditions: Brucella agar with 7% horse blood, 37° C., 4 days
Method: as §1, §2

[16] = test system: Bacillus megaterium IFO 12108; assay: In vitro antimicrobial test (agar dilution method); type: cell-based; conditions: Brucella agar with 7% horse blood, 37° C., 4 days
Method: as §1, §2

[17] = test system: Escherichia coli NIHJ JC-2; assay: In vitro antimicrobial test (agar dilution method); type: cell-based; conditions: Brucella agar with 7% horse blood, 37° C., 4 days
Method: as §1, §2

[18] = test system: Micrococcus luteus IFO 12708; assay: In vitro antimicrobial test (agar dilution method); type: cell-based; conditions: Brucella agar with 7% horse blood, 37° C., 4 days
Method: as §1, §2

[19] = test system: Serratia marcescens IFO 3046; assay: In vitro antimicrobial test (agar dilution method); type: cell-based; conditions: Brucella agar with 7% horse blood, 37° C., 4 days
Method: as §1, §2

[20] = test system: Klebsiella pneumoniae IFO 3317; assay: In vitro antimicrobial test (agar dilution method); type: cell-based; conditions: Brucella agar with 7% horse blood, 37° C., 4 days
Method: as §1, §2

[21] = test system: Helicobacter pylori TN2GF4; assay: In vivo antimicrobial activity test in infected mongolian gerbils; conditions: for Clearance Rate: mongolian gerbils infected with H. pylori TN2GF4; for Bacterial Detection: mean±standard deviation
Method: After mongolian gerbils (MGS/Sea, male, 6 weeks of age) were fasted for 24 hours, Helicobacter pylori TN2GF4 was inoculated to the stomach at 10^7.08 per mongolian gerbil. Starting at 11 days after infection, a 3, 10, 30, or 100 mg/kg suspension of the test compound in a 0.5% aqueous solution of methyl cellulose was orally administered twice daily (morning and evening) for 3 days. On the day after final administration, the stomach of each infected mongolian gerbil was excised and disrupted; a series of 10-fold dilutions of the stomach homogenate were each inoculated to modified Skirrow's medium supplemented with activated charcoal and cultured under microaerophilic conditions at 37° C. for 4 days, after which clearance effect was assessed on the basis of the presence or absence of bacterial growth. Bacterial cell counts are expressed in mean±standard deviation after Dunnett's test against the control group.
In Table 4, ** indicates p<0.01.

H. pylori NCTC 11916 = assay: In vitro antimicrobial test (agar dilution method); type: cell-based, Helicobacter pylori; conditions: Brucella agar with 7% horse blood
Method: as §1
Five microliters of each seed inoculum, previously adjusted to about 10^6 CFU/ml using Brucella broth medium supplemented with 2.5% fetal bovine serum was inoculated to each determination plate, and cultured at 37° C. in a gas pack jar incorporating CampyPak™ and water-soaked cotton absorbent for 4 days. […]

[22] = 3 mg/kg orally twice daily for 3 days

SMILES: C[C@H](c1c[nH]c2ccccc12)[C@@H]1OC(N(C)C(=O)OCc2ccccc2)=NC1=O [Example 2, (5S)-2-(N-Benzyloxycarbonyl-N-methyl)amino-5[(1R)-1-(indol-3-yl)ethyl]-2-oxazolin-4-one]
- MIC (H. pylori TN 58): 0.05 µg/mL (≈ 0.128 µM)
- MIC (H. pylori CPY 433): 0.05 µg/mL (≈ 0.128 µM)
- MIC (H. pylori TN 2): 0.025 µg/mL (≈ 0.0639 µM)
- MIC [1]: 0.025 µg/mL (≈ 0.0639 µM)

SMILES: CN=C1NC(=O)[C@H]([C@H](C)c2c[nH]c3ccccc23)O1 [Indolmycin, indolmycin]
- MIC (Bacillus cereus IFO 3514): >100 µg/mL
- MIC [2]: >100 µg/mL
- MIC [3]: >100 µg/mL
- MIC [4]: >100 µg/mL
- MIC [5]: >100 µg/mL
- MIC [6]: >100 µg/mL
- MIC [7]: >100 µg/mL
- MIC [8]: >100 µg/mL
- MIC [9]: >100 µg/mL
- MIC [10]: >100 µg/mL
- MIC [11]: >100 µg/mL
- MIC [12]: >100 µg/mL
- MIC [13]: >100 µg/mL
- MIC (Escherichia coli K12): >100 µg/mL
- MIC [14]: >100 µg/mL
- MIC [15]: >100 µg/mL
- MIC [16]: >100 µg/mL
- MIC [17]: >100 µg/mL
- MIC [18]: 12.5 µg/mL (≈ 48.6 µM)
- MIC [19]: >100 µg/mL
- MIC [20]: >100 µg/mL
- Clearance Rate [21, 22]: 0/5 (0) %
- Bacterial Detection [21, 22]: 4.61 ± 1.84 log CFU/gastric wall
- gastric bacterial cell count (in words) ([21]; 10 mg/kg or higher, mongolian gerbil): reduced the mongolian gerbil gastric bacterial cell count with dose dependency
- Clearance Rate ([21]; 10 mg/kg orally twice daily for 3 days): 0/5 (0) %
- Bacterial Detection ([21]; 10 mg/kg orally twice daily for 3 days, ** p<0.01 vs control): 2.76 ± 1.04** log CFU/gastric wall
- Clearance Rate ([21]; 30 mg/kg orally twice daily for 3 days): 1/4 (25) %
- Clearance Rate ([21]; 30 mg/kg orally twice daily for 3 days, listed as indolmycin): 25%
- Bacterial Detection ([21]; 30 mg/kg orally twice daily for 3 days, ** p<0.01 vs control): 1.96 ± 0.78** log CFU/gastric wall
- Clearance Rate ([21]; 100 mg/kg orally twice daily for 3 days): 4/5 (80) %
- Clearance Rate ([21]; 100 mg/kg orally twice daily for 3 days, listed as indolmycin): 80%
- Bacterial Detection ([21]; 100 mg/kg orally twice daily for 3 days, ** p<0.01 vs control): 1.48 ± 0.00** log CFU/gastric wall
- MIC (H. pylori TN 58): 0.025 µg/mL (≈ 0.0972 µM)
- MIC (H. pylori CPY 433): 0.013 µg/mL (≈ 0.0505 µM)
- MIC (H. pylori NCTC 11916): 0.013 µg/mL (≈ 0.0505 µM)
- MIC (H. pylori TN 2): 0.006 µg/mL (≈ 0.0233 µM)
- MIC [1]: 0.006 µg/mL (≈ 0.0233 µM)
